Test results from patent US20250034586A1, “METHOD FOR EDITING BANANA GENES” (Tropic Biosciences UK Limited, priority 2021, published 2025).

What was measured:
banana ECS [1] = experiment: CSF selection of embryos from Agrobacterium-transformed banana ECS; format: cell-based; details: after 3 months
Description: Agrobacterium tumefaciens AGL1 carrying the binary plasmids pMol_0628, pMol_0630, and pMol_0632 were streaked from glycerol in LB solid medium supplemented with rifampicin 50 mg/L, kanamycin 100 mg/L and carbenicillin 50 mg/L and incubated at 28° C. for 2 days. On the second day, the bacteria were inoculated in MG/L medium (discussed in Sarkar et al., Methods Mol Biol. 2013; 966: 187-204) supplemented with the same antibiotics and incubated overnight at 28° C. Next day, the cultures were spun down at 4000 rpm for 10 min to pellet the cells and after they were resuspended in ABIM (Agrobacterium induction media; discussed in Sarkar et al., Methods Mol Biol. 2013; 966: 187-204) to induce virulence and incubated overnight in the dark at room temperature. The OD600 of the bacteria was measured using NanoDrop2000 and normalised to 0.6 in CS liquid media supplemented with acetosyringone (100 μM).
Banana ECS with 2/3 day-old cells was pelleted and resuspended in CS medium. 0.5 mL of the suspension (approximately 0.1 mL of ECS) was split according to the number of transformations into small Eppendorf tubes. The cells were incubated at 45° C. for 5 min and after they were incubated at room temperature for another 5 min. Then, 1 mL of agrobacterium suspension was added to each banana ECS sample. […]

banana ECS [2] = experiment: Comparison of Agrobacterium transformation and particle bombardment under CSF selection; format: cell-based; details: CSF 25 μg/L, particle bombardment
Description: Transformation using agrobacterium and particle bombardment was compared.
Banana ECS with cells 2/3 days old was pelleted and resuspended in CS medium. 0.5 mL of the suspension (approximately 0.1 mL of ECS) was split accordingly to the number of transformations into small Eppendorf tubes. The cells were incubated at 45° C. for 5 min and after they had cooled down for another 5 min. Then, 1 mL of agrobacterium suspension was added to the banana ECS. The mixture was mixed well and spun down at 1000 rpm for 5 min, and then, it was incubated for 25 min at room temperature. The banana cells were pooled, and the bacteria suspension was removed. The cells were inoculated in CS plates supplemented with acetosyringone 100 μM for 3 days at room temperature to promote transformation.
After 3 days, the banana ECS were collected from the previous media and transferred to CS media supplemented with cefotaxime 300 mg/L. One week later, the banana cells were transferred to EDM plates supplemented with cefo 300 mg/L (control), or cefo 300 mg/L and CSF 25 μg/L or cefo 300 mg/L and CSF 50 μg/L. The media was refreshed every 2 weeks until embryos were developed. Subsequently, the banana embryos were transferred to maturation media without CSF (EMM) for a month and then they were transferred to germination medium (GM4) without CSF until shoots developed.

banana rooting plantlets = experiment: CSF kill curves in banana rooting plantlets (in medium, spraying, both); format: in vivo
Description: The effect of CSF was also evaluated in rooting plantlets. Three methods were tested, (i) incorporation of CSF in the rooting medium (RM), (ii) spraying the plantlets with CSF solution and (iii) incorporation in the media of a lower concentration of CSF (0.5 mg/L) and spraying the plantlets (concurrently).
Six CSF concentrations, 0, 0.05, 0.5, 5, 50 and 100 mg/L, were tested in rooting plantlets.
Rooting banana plantlets were cleared of roots and split from the corm to have single shoots for testing with RM medium with or without CSF. Five to six shoots with similar morphology were inoculated into each phytotray.
For spraying tests, CSF solutions (concentrations above) were prepared in sterile deionised water or in 0.015% Silwett L-77. One mL of solution was sprayed onto each phytotray (five shoots per phytotray, so 1 mL between five shoots). For control conditions (Omg/L CSF), 1 mL of deionised water was used.
A range of CSF concentrations (0, 0.05, 0.5, 5, 50, 100 mg/L) were tested in banana rooting shoots. Banana shoots were separated from roots and split to give single shoots that were inoculated into new media to determine the effect of CSF over a month of exposure. To assess the effectiveness of CSF in banana three approaches were tested: (i) incorporation of the toxin in RM medium, (ii) spraying the shoots, and (iii) spraying the shoots plus incorporation of a small amount of CSF […] in RM.

[3] = system: banana WT and ALS edited embryos; experiment: CSF in ECS regeneration, optimisation for edited embryos; format: cell-based; details: 3 months treatment
Description: Data were obtained for using CSF in ECS regeneration (3 months treatment) for concentrations 0, 25, 50 and 100 μg/L.

Sugar cane callus = details: after 5 weeks; 3.6, 20, 50, 200, 500 μg/L tested; cited from earlier work
Tomato plants = details: in vivo; cited from earlier work

## COc1nc(C)nc(NC(=O)NS(=O)(=O)c2ccccc2Cl)n1 [CSF, chlorsulfuron]
Banana ECS [1]; CSF 25 μg/L
  Embryos, untransformed cells: No
Banana ECS [1]; CSF 50 μg/L
  Embryos, untransformed cells: No
Banana ECS [2]
  Suitability for selection of edited bombarded cells: too strong for selection of edited bombarded cells
Banana rooting plantlets; 0.05 mg/L CSF in the medium plus spraying with CSF
  Severity of symptoms: an increase in the severity of symptoms
Banana rooting plantlets; CSF in medium, even at 0.05 mg/L
  Root development: root development was not observed
Banana rooting plantlets; CSF incorporated in RM medium, repeated 3 times
  Effective CSF concentration added to the medium (plantlets did not develop, chlorotic phenotype): 0.5 mg/L
Banana rooting plantlets; spraying banana shoots
  Lowest concentration that delayed shoot development: 5 mg/L
Banana rooting plantlets; weekly spraying with 0.5 mg/L CSF
  Shoot development: quite effective at delaying banana shoot development
[3]; CSF 25 μg/L
  Frequency of ALS edited embryos recovered after selection: 1500 ± 500
  Frequency of WT embryos recovered after selection: 0
[3]; CSF 50 μg/L
  Frequency of ALS edited embryos recovered after selection: 750 ± 250
  Frequency of WT embryos recovered after selection: 0
[3]; CSF 100 μg/L
  Frequency of ALS edited embryos recovered after selection: 0
  Frequency of WT embryos recovered after selection: 0
Sugar cane callus
  Best concentration for selection: 3.6 µg/L
Tomato plants
  CSF concentration reported to be effective: 3.6 µg/L
